pIC50: −log10 of the molar value.
Test system: NCI-H1618 multicellular tumor spheroid viability
Test: Anticancer human tumor NCI-H1618 cell line growth inhibition;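 also: spheroids exposed to agents for 7 days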
Conditions: for pIC50: curve of first compound; for viability, T/C: stronger effect = lower value
Text: Multicellular complex tumor spheroid response to DNA repair inhibitors in combination with DNA-damaging drugs
This study explores the anticancer activities of DNA-damaging drugs and inhibitors of DNA damage repair, both as single agents and in combinations. Complex tumor spheroids comprised of malignant cells, endothelial cells and mesenchymal stem cells served as an in vitro model for human solid tumors. This model system incorporates physiologically relevant features and patient-derived or established malignant cell lines with clinically relevant genetic alterations from many tumor types. Twenty-six patient-derived or established malignant cell lines were evaluated representing sarcoma, melanoma, small cell lung cancer (SCLC), non-small cell lung cancer (NSCLC), as well as bladder, ovarian and pancreatic cancers. The concentration ranges selected for each drug and investigational agent were based upon clinically achievable concentrations if the clinical Cmax of the agent was known.
Compounds. The drugs and compounds olaparib (NSC753686), talazoparib (NSC767125), berzosertib (NSC777718), elimusertib (NSC800525), nedisertib (NSC802822), VX-984 (NSC792969), AZD-1390 (NSC803789), temozolomide (NSC362856), topotecan (NSC609699), trabectedin (NSC813783), staurosporine (NSC755774), and gemcitabine (NSC613327) were obtained from the National Cancer Institute (NCI) Developmental Therapeutics Program Chemical Repository. The FDA-approved anticancer drug set is available from the Developmental Therapeutics Program at https://dtp.cancer.gov/organization/dscb/obtaining/available_plates.htm. […] The stock solutions were prepared in dimethyl sulfoxide (DMSO, Sigma-Aldrich, St. Louis, MO, cat. D2650) at 400-fold the tested concentration and stored at -70 degrees C. Prior to their use, the stock solutions were diluted in fresh medium and the final DMSO concentration in the assay was 0.25% (v/v). All drugs and investigational agents were tested over a range starting from a high concentration at or near the clinical Cmax and decreasing in half-log increments. If the clinical Cmax for an agent had not been determined, the highest concentration tested was 10 microM.
Cell Lines. The patient-derived cancer cell (PDC) lines: 156681-154-R-J1-PDC, 283228-195-R-J1-PDC, 287954-098-R-J1-PDC, 292921-168-R-J2-PDC, 349418-098-R-PDC, 425362-245-T-J1-PDC, 556581-035-R-J1-PDC, and BL0293-F563-PDC were received from the NCI Patient-Derived Models Repository (PDMR, https://pdmr.cancer.gov). The established cell lines HS-SY-2 (RRID:CVCL_8719), MPNST, and SYO-1 (RRID:CVCL_7146) were obtained from the Sloan Kettering Institute. The alveolar soft parts sarcoma cell line ASPS-1 (RRID:CVCL_S738) was established at the NCI and grown from internal seed stocks. The following established cell lines were purchased from the American Type Culture Collection (ATCC, Manassas, VA): G-401 (ATCC, cat. CRL-1441, RRID:CVCL_0270), SW982 (ATCC, cat. HTB-93, RRID:CVCL_1734), VA-ES-BJ (ATCC, cat. CRL-2138, RRID:CVCL_1785), NCI-H719 (ATCC, cat. CRL-5837, RRID:CVCL_1582), NCI-H196 (ATCC, cat. CRL-5823, RRID:CVCL_1509), NCI-H841 (ATCC, cat. CRL-5845, RRID:CVCL_1595), NCI-H1618 (ATCC, cat. CRL-5879, RRID:CVCL_1480), NCI-H1876 (ATCC, cat. CRL-5902, RRID:CVCL_1503), DMS 114 (ATCC, cat. CRL-2066; RRID:CVCL_1174), NCI-H211 (ATCC, cat. CRL-5824; RRID:CVCL_1529), and SW 1271 (ATCC, cat. CRL-2177, RRID:CVCL_1716). The small cell lung cancer cell line COR-L88 was purchased from Sigma-Aldrich (cat. 92031917-1VL, RRID:CVCL_1141). The non-small cell lung cancer cell lines NCI-H226 (RRID:CVCL_1544) and NCI-H322M (RRID:CVCL_1557) were established at the NCI and grown from internal seed stocks. Pooled donor human umbilical vein endothelial cells (HUVEC, Lonza, cat. CC-2519) and human mesenchymal stem cells (hMSC, Lonza, cat. PT-2501) were purchased from Lonza (Walkersville, MD).
Cell Culture. All cells were maintained in an incubator at 37 degrees C and 5% CO2 with 95% humidity. […]

[1] = second compound 0.003 µM, first compound 0.0316 µM
[2] = second compound 0.003 µM, first compound 0.1 µM
[3] = second compound 0.003 µM, first compound 0.316 µM
[4] = second compound 0.003 µM, first compound 1 µM
[5] = second compound 0.003 µM, first compound 3.16 µM
[6] = second compound 0.003 µM, first compound 10 µM
[7] = second compound 0.00949 µM, first compound 0.0316 µM
[8] = second compound 0.00949 µM, first compound 0.1 µM
[9] = second compound 0.00949 µM, first compound 0.316 µM
[10] = second compound 0.00949 µM, first compound 1 µM
[11] = second compound 0.00949 µM, first compound 3.16 µM
[12] = second compound 0.00949 µM, first compound 10 µM
[13] = second compound 0.03 µM, first compound 0.0316 µM
[14] = second compound 0.03 µM, first compound 0.1 µM
[15] = second compound 0.03 µM, first compound 0.316 µM
[16] = second compound 0.03 µM, first compound 1 µM
[17] = second compound 0.03 µM, first compound 3.16 µM
[18] = second compound 0.03 µM, first compound 10 µM
[19] = second compound 0.0949 µM, first compound 0.0316 µM
[20] = second compound 0.0949 µM, first compound 0.1 µM
[21] = second compound 0.0949 µM, first compound 0.316 µM
[22] = second compound 0.0949 µM, first compound 1 µM
[23] = second compound 0.0949 µM, first compound 3.16 µM
[24] = second compound 0.0949 µM, first compound 10 µM
[25] = second compound 0.3 µM, first compound 0.0316 µM
[26] = second compound 0.3 µM, first compound 0.1 µM
[27] = second compound 0.3 µM, first compound 0.316 µM
[28] = second compound 0.3 µM, first compound 1 µM
[29] = second compound 0.3 µM, first compound 3.16 µM
[30] = second compound 0.3 µM, first compound 10 µM

| Compound | pIC50 (second compound 0.003 µM) | pIC50 (second compound 0.00949 µM) | pIC50 (second compound 0.03 µM) | pIC50 (second compound 0.0949 µM) | pIC50 (second compound 0.3 µM) | viability, T/C [1] [%] | viability, T/C [2] [%] | viability, T/C [3] [%] | viability, T/C [4] [%] | viability, T/C [5] [%] | viability, T/C [6] [%] | viability, T/C [7] [%] | viability, T/C [8] [%] | viability, T/C [9] [%] | viability, T/C [10] [%] | viability, T/C [11] [%] | viability, T/C [12] [%] | viability, T/C [13] [%] | viability, T/C [14] [%] | viability, T/C [15] [%] | also measured |
| --- | --- | --- | --- | --- | --- | --- | --- | --- | --- | --- | --- | --- | --- | --- | --- | --- | --- | --- | --- | --- | --- |
| CC1COCCN1c1cc(-c2ccnn2C)c2ccnc(-c3ccn[nH]3)c2n1 (stereo not given) + CC[C@@]1(O)C(=O)OCc2c1cc1n(c2=O)Cc2cc3c(CN(C)C)c(O)ccc3nc2-1 | > 7.50 | > 7.50 | > 7.50 | > 7.50 | > 7.50 | 29.3 | 15.1 | 7 | 2.06 | 2.27 | 0.99 | 7.33 | 4.63 | 4.22 | 2.35 | 2.23 | 1.12 | 2.57 | 3.94 | 3.52 | viability, T/C [16]: 1.99%; viability, T/C [17]: 1.19%; viability, T/C [18]: 0.71%; viability, T/C [19]: 3.01%; viability, T/C [20]: 2.44%; viability, T/C [21]: 5%; viability, T/C [22]: 2.35%; viability, T/C [23]: 2.1%; viability, T/C [24]: 0.81%; viability, T/C [25]: 1.79%; viability, T/C [26]: 1.4%; viability, T/C [27]: 1.52%; viability, T/C [28]: 1.45%; viability, T/C [29]: 0.77%; viability, T/C [30]: 0.65% |
| COc1cc(C)[nH]c(=O)c1CN1CCc2c(Cl)cc(C(OC)C3COC3)c(Cl)c2C1=O (stereo not given) + CC[C@@]1(O)C(=O)OCc2c1cc1n(c2=O)Cc2cc3c(CN(C)C)c(O)ccc3nc2-1 | < 5.00 | > 7.50 | > 7.50 | > 7.50 | > 7.50 | 54.1 | 52.3 | 78.8 | 63.3 | 83.5 | 53.2 | 39.5 | 10.9 | 17.2 | 40.1 | 38.8 | 29.1 | 6.67 | 5.82 | 8.79 | viability, T/C [16]: 4.86%; viability, T/C [17]: 5.97%; viability, T/C [18]: 7.23%; viability, T/C [19]: 6.1%; viability, T/C [20]: 2.42%; viability, T/C [21]: 2.48%; viability, T/C [22]: 6.01%; viability, T/C [23]: 4.18%; viability, T/C [24]: 6.78%; viability, T/C [25]: 2.05%; viability, T/C [26]: 2.31%; viability, T/C [27]: 2%; viability, T/C [28]: 1.4%; viability, T/C [29]: 3.18%; viability, T/C [30]: 2.92% |
| Cc1cc(C)c(CNC(=O)c2cc(-c3ccc(CN4CCOCC4)cc3)cc3c2cnn3C2CCCC2)c(=O)[nH]1 + CC[C@@]1(O)C(=O)OCc2c1cc1n(c2=O)Cc2cc3c(CN(C)C)c(O)ccc3nc2-1 | < 5.00 | > 7.50 | > 7.50 | > 7.50 | > 7.50 | 90.8 | 94.2 | 94.5 | 88.5 | 83.1 | 76.2 | 58.5 | 38.5 | 51 | 27.2 | 17.3 | 12.7 | 1.8 | 1.58 | 1.81 | viability, T/C [16]: 1.82%; viability, T/C [17]: 1.84%; viability, T/C [18]: 18.6%; viability, T/C [19]: 1.32%; viability, T/C [20]: 1.44%; viability, T/C [21]: 1.43%; viability, T/C [22]: 2.27%; viability, T/C [23]: 1.46%; viability, T/C [24]: 2.04%; viability, T/C [25]: 19.2%; viability, T/C [26]: 1.25%; viability, T/C [27]: 1.16%; viability, T/C [28]: 1.34%; viability, T/C [29]: 1.57%; viability, T/C [30]: 19.7% |
| [2H]c1nc(C)nc([2H])c1-c1cc(NC[C@@H](C)c2cccc3c(C(=O)NC)ccnc23)ncn1 + CC[C@@]1(O)C(=O)OCc2c1cc1n(c2=O)Cc2cc3c(CN(C)C)c(O)ccc3nc2-1 | > 7.50 | > 7.50 | > 7.50 | > 7.50 | > 7.50 | 43.8 | 7.02 | 138 | 158 | 108 | 57.3 | 23 | 4.37 | 42.7 | 109 | 70.8 | 29.9 | 12 | 7.3 | 15.2 | viability, T/C [16]: 21.4%; viability, T/C [17]: 22%; viability, T/C [18]: 26.6%; viability, T/C [19]: 11.4%; viability, T/C [20]: 10.8%; viability, T/C [21]: 3.24%; viability, T/C [22]: 24.5%; viability, T/C [23]: 22.6%; viability, T/C [24]: 21.6%; viability, T/C [25]: 9.96%; viability, T/C [26]: 5.33%; viability, T/C [27]: 2.69%; viability, T/C [28]: 14.1%; viability, T/C [29]: 16.1%; viability, T/C [30]: 4.13% |
